Measurements from PubChem BioAssay AID330 (DTP/NCI, 2004).
Several values for one entry are separate records, joined by “and”; a condition that tells them apart may be missing. Identical values can stand only once. Toxic doses and inconclusive results are not listed.

Test system: P388 leukemia ip, CD2F1 mice, survival T/C
Test: NCI In Vivo Anticancer Drug Screen. Data for tumor model P388 Leukemia (intraperitoneal) in CD2F1 (CDF1) mice
Conditions: endpoint: median survival time, higher = longer survival
How it was run: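 Mice carrying the transplanted tumor received test compound or vehicle. Survival was recorded in each group, and the value is the treated-group measurement divided by that of the vehicle-treated control group.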

[1] = dose: 100.0 mg/kg/injection, schedule: Q01DX005 (ip), vehicle: saline with Tween-80
[2] = dose: 200.0 mg/kg/injection, schedule: Q01DX005 (ip), vehicle: saline with Tween-80
[3] = dose: 100.0 mg/kg/injection, schedule: Q01DX009 (ip), vehicle: saline with Tween-80

For `C/C(=C/OS(=O)(=O)C(F)(F)F)c1ccccc1`, which T/C (dose: 50.0 mg/kg/injection, schedule: Q01DX009 (ip), vehicle: olive oil, sesame oil, peanut oil) is on record?
Its T/C is 105 % of control.

What about the T/C (dose: 100.0 mg/kg/injection, schedule: Q01DX009 (ip), vehicle: olive oil, sesame oil, peanut oil) of the same molecule?
Its T/C is 116 % of control.

What about the T/C (dose: 200.0 mg/kg/injection, schedule: Q01DX009 (ip), vehicle: olive oil, sesame oil, peanut oil) of the same molecule?
Its T/C is 87 % of control.

For `CC(=O)C(C(C)=O)C(C(C)=O)C(C)=O.[Cu]`, which T/C (dose: 1.5 mg/kg/injection, schedule: Q01DX005 (ip), vehicle: saline with Tween-80) is on record?
The T/C was 110 % of control.

And the T/C (dose: 3.0 mg/kg/injection, schedule: Q01DX005 (ip), vehicle: saline with Tween-80)?
The T/C was 107 % of control.

What about the T/C (dose: 6.0 mg/kg/injection, schedule: Q01DX005 (ip), vehicle: saline with Tween-80) of the same molecule?
Its T/C is 99 % of control.

And the T/C (dose: 6.25 mg/kg/injection, schedule: Q01DX005 (ip), vehicle: saline with Tween-80)?
Its T/C is 104 % of control.

Which results are given for `Cc1c(NC(=O)CCCl)c(=O)oc2c(C)c3occc(=O)c3cc12`?
T/C (dose: 100.0 mg/kg/injection, schedule: Q01DX001 (ip), vehicle: saline with Tween-80): 100 % of control; T/C (dose: 200.0 mg/kg/injection, schedule: Q01DX001 (ip), vehicle: saline with Tween-80): 99 % of control; T/C (dose: 400.0 mg/kg/injection, schedule: Q01DX001 (ip), vehicle: saline with Tween-80): 90 % of control

`NC(CCC(=O)NCC(=O)O)C(=O)O` (stereo not given) was tested. Which T/C (dose: 50.0 mg/kg/injection, schedule: Q01DX005 (ip), vehicle: saline) did it give?
The T/C was 94 % of control.

What about the T/C (dose: 100.0 mg/kg/injection, schedule: Q01DX005 (ip), vehicle: saline) of the same molecule?
Its T/C is 104 % of control.

And the T/C (dose: 200.0 mg/kg/injection, schedule: Q01DX005 (ip), vehicle: saline)?
Its T/C is 102 % of control.

How did the T/C (dose: 1.87 mg/kg/injection, schedule: Q01DX005 (ip), vehicle: Klucel (hydroxypropylcellulose) (HPC)) turn out when `O=C1CC=C2C3CC4N(CCC45c4ccccc4N1C25)C/C3=C\CBr` (stereo not given) was run?
The T/C was 105 % of control.

And the T/C (dose: 3.75 mg/kg/injection, schedule: Q01DX005 (ip), vehicle: Klucel (hydroxypropylcellulose) (HPC))?
The T/C was 103 % of control.

What about the T/C (dose: 7.5 mg/kg/injection, schedule: Q01DX005 (ip), vehicle: Klucel (hydroxypropylcellulose) (HPC)) of the same molecule?
The T/C was 101 % of control and 105 % of control.

What does the source list for `CCCC(=O)N(C)O`?
T/C [1]: 108 % of control; T/C [2]: 103 % of control

Which T/C (dose: 100.0 mg/kg/injection, schedule: Q04DX003 (ip), vehicle: saline) does the source give for `CC1(C)CC(=O)OC/C=C\CC(Cc2ccccc2)C(=O)C1` (stereo not given) here?
The T/C was 104 % of control.

And the T/C (dose: 200.0 mg/kg/injection, schedule: Q04DX003 (ip), vehicle: saline)?
Its T/C is 97 % of control.

What about the T/C (dose: 400.0 mg/kg/injection, schedule: Q04DX003 (ip), vehicle: saline) of the same molecule?
Its T/C is 96 % of control.

How did the T/C (dose: 5.0 mg/kg/injection, schedule: Q04DX003 (ip), vehicle: other) turn out when `O=CNC(Cc1ccccc1N(CCCl)CCCl)C(=O)O` (stereo not given) was run?
The T/C was 198 % of control.

What about the T/C (dose: 5.0 mg/kg/injection, schedule: Q04DX003 (ip), vehicle: water) of the same molecule?
The T/C was 154 % of control.

And the T/C (dose: 10.0 mg/kg/injection, schedule: Q04DX003 (ip), vehicle: other)?
The T/C was 261 % of control.

What about the T/C (dose: 10.0 mg/kg/injection, schedule: Q04DX003 (ip), vehicle: water) of the same molecule?
The T/C was 187 % of control.

And the T/C (dose: 20.0 mg/kg/injection, schedule: Q04DX003 (ip), vehicle: other)?
Its T/C is 293 % of control.

And the T/C (dose: 20.0 mg/kg/injection, schedule: Q04DX003 (ip), vehicle: water)?
The T/C was 309 % of control.

And the T/C (dose: 40.0 mg/kg/injection, schedule: Q04DX003 (ip), vehicle: water)?
The T/C was 113 % of control.

Which T/C (dose: 100.0 mg/kg/injection, schedule: Q04DX002 (ip), vehicle: suspension in saline) does the source give for `CCCCS[Si](SC(C)(C)C)(SC(C)(C)C)SC(C)(C)C` here?
Its T/C is 95 % of control.

What about the T/C (dose: 200.0 mg/kg/injection, schedule: Q04DX002 (ip), vehicle: suspension in saline) of the same molecule?
The T/C was 99 % of control.

What about the T/C (dose: 400.0 mg/kg/injection, schedule: Q04DX002 (ip), vehicle: suspension in saline) of the same molecule?
Its T/C is 93 % of control.

What does the source list for `CCOC(=O)C(Br)(C(=O)OCC)C(C)C`?
T/C (dose: 50.0 mg/kg/injection, schedule: Q01DX009 (ip), vehicle: saline): 111 % of control; T/C (dose: 100.0 mg/kg/injection, schedule: Q01DX009 (ip), vehicle: saline): 109 % of control; T/C (dose: 200.0 mg/kg/injection, schedule: Q01DX009 (ip), vehicle: saline): 120 % of control

Which results are given for `CC(=O)[C@H]1CC[C@H]2[C@@H]3C[C@H](F)C4=CC(=O)CC[C@]4(C)[C@H]3C(=O)C[C@]12C`?
T/C [3]: 100 % of control; T/C (dose: 200.0 mg/kg/injection, schedule: Q01DX009 (ip), vehicle: saline with Tween-80): 100 % of control; T/C (dose: 400.0 mg/kg/injection, schedule: Q01DX009 (ip), vehicle: saline with Tween-80): 100 % of control

How did the T/C (dose: 60.0 mg/kg/injection, schedule: Q01DX005 (ip), vehicle: Klucel (hydroxypropylcellulose) (HPC)) turn out when `Cc1cc(O)cc(=O)n1CCc1ccccc1` was run?
Its T/C is 88 % of control.

What about the T/C (dose: 120.0 mg/kg/injection, schedule: Q01DX005 (ip), vehicle: Klucel (hydroxypropylcellulose) (HPC)) of the same molecule?
Its T/C is 94 % of control.

What about the T/C (dose: 240.0 mg/kg/injection, schedule: Q01DX005 (ip), vehicle: Klucel (hydroxypropylcellulose) (HPC)) of the same molecule?
The T/C was 96 % of control.

How did the T/C (dose: 50.0 mg/kg/injection, schedule: Q01DX009 (ip), vehicle: saline with Tween-80) turn out when `CC(C)c1ccc(OS(=O)(=O)C(F)(F)C(F)(F)C(F)(F)C(F)(F)F)cc1` was run?
The T/C was 99 % of control.

And the T/C [3]?
Its T/C is 105 % of control.

Which T/C (dose: 50.0 mg/kg/injection, schedule: Q01DX005 (ip), vehicle: saline with Tween-80) does the source give for `COc1ccc2c(c1)OCCN(C)C2c1ccccc1` (stereo not given) here?
The T/C was 97 % of control.

What about the T/C [1] of the same molecule?
The T/C was 99 % of control.

What about the T/C [2] of the same molecule?
The T/C was 99 % of control.
